As a reminder, the bioavailability is dose-corrected exposure relative to a reference, in per cent. A lower bioavailability goes with poor availability.

The structures appear in SMILES notation. A value given as a limit tells only on which side of the number the result lay.

From US5559158A, “Pharmaceutical composition” (Abbott Laboratories, priority 1994, dated 1996) come the findings set out here.

Series [1] is described as follows: Oral bioavailability study in dogs. As to conditions: dog, in vivo, 5 mg/kg, summary statement, dose not stated. Details: species or system beagle dogs. Here is the method:
Each dog received a single solid dosage form corresponding to a 5 mg/kg dose of the drug.

In a further series the test system is HIV-1 protease. Kind of series: Inhibition of HIV-1 protease. It counts as biochemical. As to conditions: in words.
In another series the test system is HIV-2 protease. Kind of series: Inhibition of HIV-2 protease. It counts as biochemical. The conditions noted are these: in words.
Where [2] appears, read: listed as compound of formula II.

Consider `CC(C)c1nc(CN(C)C(=O)NC(C(=O)N[C@@H](Cc2ccccc2)C[C@H](O)[C@H](Cc2ccccc2)NC(=O)OCc2cncs2)C(C)C)cs1` (stereo partly drawn) [Compound III, (2S,3S,5S)-5-(N-(N-((N-Methyl-N-((2-isopropyl-4-thiazolyl)methyl)-amino)carbonyl)valinyl)amino)-2-(N((5-thiazolyl)methoxycarbonyl)amino)-1,6-diphenyl-3-hydroxyhexane], for which the bioavailability in series [1] is less than 2%. Also, in the series on HIV-1 protease, the “inhibition of HIV-1 protease” value is reported as “inhibitors”. Further, the “inhibition of HIV-2 protease” value in the series on HIV-2 protease is given as “inhibitors”.
As for `CC(C)c1nc(CN(C)C(=O)NC(C(=O)NC(Cc2ccccc2)CC(O)C(Cc2ccccc2)NC(=O)OCc2cncs2)C(C)C)cs1` (stereo not shown) [Compound II], the “inhibition of HIV-1 protease” value in the series on HIV-1 protease is listed as “inhibitors”; in the series on HIV-1 protease (setting [2]) it was “especially effective”. Also, the “inhibition of HIV-2 protease” value in the series with HIV-2 protease is recorded as “inhibitors”; in the series with HIV-2 protease (setting [2]), “especially effective”.
